Test system: Tobacco mosaic virus
Assay: Antiviral activity against TMV at 500 mg/L
Assay type: functional

Structure (SMILES) | inhibition at 500 µg/mL [%]
CNC(=O)C(Oc1ccccc1Br)c1csnn1 (stereo not given) | 44
CNC(=O)C(c1csnn1)S(=O)(=O)c1ccc(OC)cc1 (stereo not given) | 0
CNC(=O)C(c1csnn1)[S+]([O-])c1cc(C)ccc1C (stereo not given) | 0
CNC(=O)C(Sc1ccc(Cl)cc1)c1csnn1 (stereo not given) | 42
CNC(=O)C(SCc1ccc(Cl)cc1)c1csnn1 (stereo not given) | 35
CNC(=O)C(Oc1ccc2ccccc2c1)c1csnn1 (stereo not given) | 44
CNC(=O)C(c1csnn1)S(=O)(=O)c1ccccc1F (stereo not given) | 82
CNC(=O)C(Sc1nnc(-c2c(C)nn(C)c2SC)s1)c1csnn1 (stereo not given) | 35
CNC(=O)C(c1csnn1)[S+]([O-])c1ccc(Cl)cc1 (stereo not given) | 31
CNC(=O)C(Sc1cc(C)ccc1C)c1csnn1 (stereo not given) | 0
CNC(=O)C(Oc1ccc(Br)cc1)c1csnn1 (stereo not given) | 64
CNC(=O)C(Sc1nc2nc(C)cc(C)n2n1)c1csnn1 (stereo not given) | 5
CNC(=O)C(c1csnn1)S(=O)(=O)c1ccc(F)cc1 (stereo not given) | 19
CNC(=O)C(Oc1cc(C)ccc1Cl)c1csnn1 (stereo not given) | 56
CNC(=O)C(c1csnn1)[S+]([O-])Cc1ccc(Cl)cc1 (stereo not given) | 20
CNC(=O)C(c1csnn1)[S+]([O-])c1ccc(F)cc1 (stereo not given) | 11
CNC(=O)C(Sc1ccc(F)cc1)c1csnn1 (stereo not given) | 33
CNC(=O)C(c1csnn1)n1cncn1 (stereo not given) | 42
CNC(=O)C(Sc1ccccc1F)c1csnn1 (stereo not given) | 37
CNC(=O)C(c1csnn1)S(=O)(=O)c1cc(C)ccc1C (stereo not given) | 12
CNC(=O)C(c1csnn1)S(=O)(=O)Cc1ccc(Cl)cc1 (stereo not given) | 51
CNC(=O)C(c1csnn1)[S+]([O-])c1ccccc1F (stereo not given) | 19
CNC(=O)C(Oc1cccc(C)c1)c1csnn1 (stereo not given) | 5.5
CNC(=O)C(Oc1ccccc1Cl)c1csnn1 (stereo not given) | 53
CNC(=O)C(Sc1cc(Cl)ccc1Cl)c1csnn1 (stereo not given) | 0

Test system: Hepatitis B virus
Assay: Antiviral activity against HBV in HepG2 2.2.15 cells assessed as inhibition of HBsAg at 0.6 umol/mL
Assay type: functional

Structure (SMILES) | Inhibition [%]
CNC(=O)C(Oc1cc(C)ccc1Cl)c1csnn1 (stereo not given) | 88.6

Test system: Hepatitis B virus
Assay: Antiviral activity against HBV in HepG2 2.2.15 cells assessed as inhibition of HBeAg at 0.6 umol/mL
Assay type: functional

Structure (SMILES) | Inhibition [%]
CNC(=O)C(Oc1cc(C)ccc1Cl)c1csnn1 (stereo not given) | 15.5

Test system: Hepatitis B virus
Assay: Antiviral activity against HBV in HepG2 2.2.15 cells assessed as inhibition of HBsAg at 0.4 umol/mL
Assay type: functional

Structure (SMILES) | Inhibition [%]
CNC(=O)C(Oc1cc(C)ccc1Cl)c1csnn1 (stereo not given) | 52.9

Test system: Hepatitis B virus
Assay: Antiviral activity against HBV in HepG2 2.2.15 cells assessed as inhibition of HBeAg at 0.4 umol/mL
Assay type: functional

Structure (SMILES) | Inhibition [%]
CNC(=O)C(Oc1cc(C)ccc1Cl)c1csnn1 (stereo not given) | 44.2

Test system: Hepatitis B virus
Assay: Antiviral activity against HBV in HepG2 2.2.15 cells assessed as inhibition of viral DNA synthesis
Assay type: functional, organism-based

Structure (SMILES) | IC50 [µM]
CNC(=O)C(Oc1cc(C)ccc1Cl)c1csnn1 (stereo not given) | 400

Reference: ChEMBL document CHEMBL1146178, “Synthesis and antiviral activity against tobacco mosaic virus and 3D-QSAR of alpha-substituted-1,2,3-thiadiazoleacetamides” (Bioorg Med Chem Lett, 2006)
